# Source: the supplement of paper PMC10307832
# Columns and labels:
# Test in all cases: relative viability (nuclei count vs DMSO), 5 days (fraction); higher = more cells survive
# [1] = compound: O=C(c1cc(Cc2n[nH]c(=O)c3ccccc23)ccc1F)N1CCN(C(=O)C2CC2)CC1 [Olaparib] + Cc1nc(NC(=O)N2CCC[C@H]2C(N)=O)sc1-c1ccnc(C(C)(C)C(F)(F)F)c1 [Alpelisib] (partner 2 µM)
# How it was run: (§1)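 Lung cancer cell lines were seeded in 1536-well plates and dosed by pin tool the next day, with either a single drug or a fixed anchor-drug dose combined with five library-drug doses (not always all listed) spaced in √10 steps. Five days later, one step fixed the cells and stained their nuclei (final 0.05% Triton X-100, 1% formaldehyde, 1 ug/ml Hoechst), and nuclei were counted on 4× images. Relative viability is the nuclei count in treated wells divided by the count in vehicle wells, and each value is the median of duplicate plates.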
# [2] = compound: O=C(c1cc(Cc2n[nH]c(=O)c3ccccc23)ccc1F)N1CCN(C(=O)C2CC2)CC1 [Olaparib] + CC(=O)Nc1cccc(-n2c(=O)n(C3CC3)c(=O)c3c(Nc4ccc(I)cc4F)n(C)c(=O)c(C)c32)c1 [Trametinib] (partner 0.02 µM)
# How it was run: as §1
# [3] = compound: CC(C)C[C@H](NC(=O)[C@H](CCc1ccccc1)NC(=O)CN1CCOCC1)C(=O)N[C@@H](Cc1ccccc1)C(=O)N[C@@H](CC(C)C)C(=O)[C@@]1(C)CO1 [Carfilzomib] + CC(=O)c1c(C)c2cnc(Nc3ccc(N4CCNCC4)cn3)nc2n(C2CCCC2)c1=O [Palbociclib] (partner 0.5 µM)
# How it was run: as §1
# [4] = compound: CC(C)C[C@H](NC(=O)[C@H](CCc1ccccc1)NC(=O)CN1CCOCC1)C(=O)N[C@@H](Cc1ccccc1)C(=O)N[C@@H](CC(C)C)C(=O)[C@@]1(C)CO1 [Carfilzomib] + CS(=O)(=O)N1CCN(Cc2cc3nc(-c4cccc5[nH]ncc45)nc(N4CCOCC4)c3s2)CC1 [Pictilisib] (partner 1 µM)
# How it was run: as §1
Cell Line,relative viability ([1]; first compound 0.08 µM),relative viability ([1]; first compound 0.253 µM),relative viability ([1]; first compound 2.53 µM),relative viability ([1]; first compound 8 µM),relative viability ([2]; first compound 0.08 µM),relative viability ([2]; first compound 0.253 µM),relative viability ([2]; first compound 2.53 µM),relative viability ([2]; first compound 8 µM),relative viability ([3]; first compound 0.001 µM),relative viability ([3]; first compound 0.003162 µM),relative viability ([3]; first compound 0.01 µM),relative viability ([3]; first compound 0.03162 µM),relative viability ([3]; first compound 0.1 µM),relative viability ([4]; first compound 0.001 µM),relative viability ([4]; first compound 0.003162 µM),relative viability ([4]; first compound 0.01 µM),relative viability ([4]; first compound 0.03162 µM),relative viability ([4]; first compound 0.1 µM)
201T,0.985,0.938,1.01,0.98,0.682,0.695,0.726,0.668,0.355,0.357,0.383,0.345,0.31,0.67,0.659,0.668,0.727,0.666
A549,0.822,0.63,0.671,0.589,–,–,–,–,–,–,–,–,–,0.525,0.472,0.44,0.118,0.0573
A-427,1.14,1.06,0.855,0.809,0.782,0.741,0.719,0.601,0.543,0.56,0.515,0.509,0.188,0.776,0.734,0.632,0.296,0.092
ABC-1,0.958,1,0.96,0.981,–,–,–,–,0.831,0.736,0.441,0.273,0.253,0.691,0.471,0.237,0.249,0.216
BEN,1.02,1.02,1.19,0.995,1.11,0.991,1.07,1.1,0.491,0.465,0.455,0.499,0.319,0.635,0.679,0.587,0.523,0.249
CAL-12T,1.79,1.03,1.25,1.12,0.351,0.292,0.417,0.305,0.507,0.507,0.586,0.165,0.145,–,0.767,0.586,0.304,0.143
COR-L23,0.811,0.586,0.532,0.357,0.661,0.642,0.498,0.451,0.29,0.305,0.211,0.0606,0.064,0.756,0.806,0.678,0.0485,0.0565
COR-L 105,1.17,1.02,0.87,0.639,0.472,0.446,0.425,0.428,0.413,0.414,0.35,0.317,0.329,0.414,0.437,0.346,0.289,0.23
Calu-6,1.08,1.04,0.965,0.729,–,–,–,–,–,–,–,–,–,1.01,0.97,0.798,0.108,0.0567
ChaGo-K-1,–,–,–,–,0.949,0.792,0.819,0.735,0.926,0.931,0.907,0.313,0.153,–,1.27,0.839,0.523,0.348
EBC-1,0.901,0.794,0.68,0.633,–,–,–,–,–,–,–,–,–,0.407,0.347,0.192,0.0926,0.117
EKVX,1.11,0.872,0.844,0.903,0.425,0.427,0.313,0.362,0.369,0.474,0.427,–,0.137,0.443,0.492,0.542,0.476,0.169
EMC-BAC-2,0.737,0.751,0.636,0.621,0.971,0.844,0.932,0.806,0.531,0.539,0.51,0.455,0.316,0.503,0.612,0.586,0.574,0.258
EPLC-272H,1.03,0.871,1.09,0.789,0.363,0.272,0.306,0.287,0.285,0.337,0.317,0.114,0.0482,0.188,0.363,0.322,0.0934,0.0877
H3255,0.751,0.752,0.652,0.647,0.652,0.633,0.583,0.567,0.334,0.331,0.309,0.231,0.264,0.433,0.52,0.426,0.423,0.177
HARA,0.935,0.728,0.959,0.76,0.882,0.66,0.732,0.632,0.28,0.257,0.306,0.182,0.0965,0.422,0.609,0.385,0.0609,0.0598
HCC-15,0.988,0.815,0.905,0.724,0.422,0.387,0.39,0.353,0.706,0.688,0.751,0.61,0.206,0.596,0.863,0.784,0.522,0.156
HCC-44,0.89,0.721,0.914,0.839,1.04,0.949,1.01,0.996,1.02,0.938,0.999,0.999,0.69,0.506,0.674,0.57,0.654,0.166
HCC-78,0.424,0.328,0.445,0.365,0.861,0.647,0.716,0.707,0.431,0.454,0.528,0.439,0.348,0.207,0.194,0.236,0.134,0.117
HCC-366,0.392,0.31,0.3,0.15,0.311,0.311,0.268,0.214,0.374,0.361,0.396,0.327,0.0404,0.129,0.175,0.17,0.312,0.0504
HCC-827,1.02,0.934,0.828,0.876,0.52,0.508,0.498,0.478,0.499,0.459,0.72,0.459,0.159,1.06,1.08,1.06,1.05,0.487

Cell Line,relative viability ([1]; first compound 0.08 µM),relative viability ([1]; first compound 0.253 µM),relative viability ([1]; first compound 2.53 µM),relative viability ([1]; first compound 8 µM),relative viability ([2]; first compound 0.08 µM),relative viability ([2]; first compound 0.253 µM),relative viability ([2]; first compound 2.53 µM),relative viability ([2]; first compound 8 µM),relative viability ([3]; first compound 0.001 µM),relative viability ([3]; first compound 0.003162 µM),relative viability ([3]; first compound 0.01 µM),relative viability ([3]; first compound 0.03162 µM),relative viability ([3]; first compound 0.1 µM),relative viability ([4]; first compound 0.001 µM),relative viability ([4]; first compound 0.003162 µM),relative viability ([4]; first compound 0.01 µM),relative viability ([4]; first compound 0.03162 µM),relative viability ([4]; first compound 0.1 µM)
HOP-62,1.25,0.774,0.754,0.782,0.358,0.359,0.393,0.333,0.44,0.496,0.41,0.19,0.0616,0.569,1.11,0.467,0.0638,0.0695
IA-LM,0.929,0.738,0.76,0.509,–,–,–,–,–,–,–,–,–,0.293,0.305,0.292,0.0283,0.0095
LC-2-ad,0.893,0.746,0.863,0.695,0.877,0.819,0.894,0.809,0.549,0.495,0.488,0.481,0.32,0.448,0.525,0.455,0.149,0.16
LCLC-97TM1,0.256,0.219,0.271,0.19,0.237,0.165,0.215,0.203,0.217,0.214,0.24,0.0666,0.0679,0.214,0.223,0.122,0.114,0.116
LCLC-103H,1,0.928,1.09,0.923,0.669,0.689,0.679,0.652,0.415,0.47,0.465,0.494,0.416,0.616,0.659,0.718,0.685,0.347
LK-2,1.07,1.03,1.25,0.945,0.887,0.701,0.888,0.788,0.661,0.659,0.846,0.116,0.106,–,0.826,0.64,0.266,0.251
LOU-NH91,0.783,0.758,0.745,0.647,0.862,0.782,0.793,0.825,0.492,0.543,0.514,0.363,0.314,0.51,0.525,0.477,0.312,0.255
LU99A,0.608,0.487,0.471,0.422,0.525,0.535,0.473,0.466,0.408,0.402,0.439,0.351,0.188,0.349,0.341,0.331,0.238,0.151
LXF-289,1.16,1.02,1.07,1.03,0.737,0.674,0.771,0.847,0.586,0.582,0.569,0.0924,0.12,0.753,0.776,0.644,0.0604,0.0625
NCI-H23,0.658,0.546,0.539,0.384,0.402,0.439,0.385,0.368,0.508,0.484,0.429,0.212,0.116,0.469,0.551,0.436,0.159,0.122
NCI-H322M,0.893,0.789,0.911,0.709,0.496,0.57,0.577,0.523,0.487,0.475,0.543,0.522,0.37,0.491,0.507,0.567,0.538,0.307
NCI-H522,–,–,–,–,0.679,0.733,0.711,0.715,0.873,0.977,0.848,1.08,0.274,–,–,–,–,–
NCI-H596,0.532,0.452,0.551,0.41,0.789,0.719,0.82,0.637,–,–,–,–,–,0.365,0.425,0.398,0.259,0.18
NCI-H1299,1.03,1,1.07,1.03,–,–,–,–,–,–,–,–,–,0.735,0.838,0.6,0.0711,0.0334
NCI-H1563,1.04,0.952,0.929,0.973,–,–,–,–,–,–,–,–,–,0.615,0.62,0.689,0.595,0.548
NCI-H1648,–,–,–,–,0.455,0.513,–,0.418,0.236,0.23,0.227,0.288,0.255,–,–,–,–,–
NCI-H1650,–,–,–,–,0.6,0.503,0.62,0.565,0.306,0.371,0.209,0.11,0.188,–,0.685,0.284,0.127,0.151
NCI-H1703,0.45,0.464,0.391,0.412,–,–,–,–,–,–,–,–,–,0.202,0.3,0.17,0.16,0.144
NCI-H2342,–,–,–,–,0.8,0.871,0.802,0.742,0.488,0.57,0.58,0.576,0.44,–,–,–,–,–
SW 900,–,–,–,–,0.867,0.758,0.85,0.815,–,0.51,0.288,0.19,0.186,–,–,–,–,–
